In one test the test system is M14. Description: Cell viability (MTS) anti-proliferative assay, M14. The settings on record: M14 human melanoma, 48 h treatment, n = 4, read-out: IC50 values ± SEM, M14. It counts as cell-based. The procedure:
(§1) The anti-proliferative effect of UC-112 and its analogs were tested in human melanoma (A375, M14 and M14/LCC6MDR1) and human prostate cancer (PC-3) cell lines. All the cell lines were purchased from ATCC (American Type Culture Collection, Manassas, VA). The cancer cells were cultured using the supplemented cell culture medium as described before at 37°C in a humidified atmosphere containing 5% CO2. 5000 cells in logarithm growing phase were seeded overnight into each well of a 96-well plate. Then the cells were continuously incubated with sequential diluted compound solution (10 nM to 100 μM, 100 μl per well) in cell culture medium.

In a further test the test system is A375. Description: Cell viability (MTS) anti-proliferative assay, A375. It counts as cell-based. The settings on record: A-375, A375 human melanoma, 48 h treatment, n = 4, read-out: IC50 values ± SEM, A375. The procedure:
as §1

In a further test the test system is caspase 3/7. Kind of test: Caspase 3/7 functional assay (Caspase-Glo 3/7). The settings on record: 1 μM, 24 h, A375 or PC-3 cells, N = 3. It counts as cell-based, human. The procedure:
The caspase 3/7 activity of cancer cells treated by DMSO control or compound of interest was analyzed using Glo Caspase-Glo 3/7 kit from Promega Corporation (Madison, WI) as per manufacturer’s instructions in similar protocol as described before. The readings of relative luminescence unit were normalized by the cell viability read from the same well determined by compatible CytoTox-Fluor Cytotoxicity assay kit (Promega, WI).

The next test concerns PC-3. Description: Cell viability (MTS) anti-proliferative assay, PC-3. It counts as cell-based. Conditions: PC-3 human prostate cancer, 48 h treatment, n = 4, read-out: IC50 values ± SEM, PC-3. The procedure:
as §1

The test system of the next test is M14/LCC6MDR1. Kind of test: Cell viability (MTS) anti-proliferative assay, multidrug-resistant M14/LCC6MDR1. It counts as cell-based, human. Conditions: for IC50: Homo sapiens, 48 h, multidrug-resistant M14/LCC6MDR1 melanoma, 48 h treatment, MTS, n = 4, read-out: IC50 values ± SEM, M14/LCC6MDR1; for Resistance Index: IC50 on M14/LCC6MDR1 divided by IC50 on parental M14. The procedure: as §1

The next test relates to NCI-60 cell lines. Kind of test: NCI-60 cell line screening (SRB), whole panel. It counts as cell-based, human. Conditions: for Activity in NCI-60 one-concentration screening: 10 μM. The procedure:
Four compounds including the parental compound UC-112 were submitted to National Cancer Institute for its NCI-60 cell line screening, initially tested at one concentration (10 μM), and subsequently selected for full five concentration testing following the standard protocols disclosed by NCI [34]. In brief, cells were plated into 96 well micro-titer plates 24 h prior to the treatment of compound solution for 48 h, then the cell viability was read out through absorbance of sulforhodamine B (SRB) staining.

Test [1] concerns the target T1, survivin (Homo sapiens, UniProt O15392).
T1 construct: endogenous in cells; host or cells: A375 cells
Description: Western blotting of survivin level, PC-3 cells. It counts as cell-based. Conditions: gradient increasing dose, 24 h.

In test [2] the test system is other IAPs (XIAP, cIAP1, cIAP2, livin). Description: Western blotting of other IAP levels. Conditions: 24 h, A375 and PC-3 cells. It counts as cell-based, human. The procedure: (§2) Lysates of A375 cells treated by the compound solution for 24 h were used to determine the change of IAP protein levels through western blotting. Primary rabbit antibodies against survivin, XIAP, cIAP1, cIAP2, livin and GAPDH were purchased from Cell Signaling Technology, Inc. (Danvers, MA) and used according to manufacture instructions as reported previously. Protein lane intensities were quantified by ImageJ software (US National Institutes of Health, Bethesda, MD).
Background: A western blot detects proteins with antibodies after separation by electrophoresis.

The target in test [3] is T1, survivin. Kind of test: Western blotting of survivin level, A375 cells. It counts as cell-based. The procedure:
as §2

The values that follow come from paper PMC4466525, “Design, Synthesis and Structure-Activity Relationship Studies of Novel Survivin Inhibitors with Potent Anti-Proliferative Properties” (PLoS ONE, 2015).

T1 sequence (O15392 whole entry): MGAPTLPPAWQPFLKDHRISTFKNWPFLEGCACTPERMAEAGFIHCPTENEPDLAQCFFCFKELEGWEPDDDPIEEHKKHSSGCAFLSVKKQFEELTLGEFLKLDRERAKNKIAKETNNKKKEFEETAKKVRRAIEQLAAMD

In the case of `Oc1c(CN2CCCC2)cc(COCc2ccc(Br)cc2)c2cccnc12` [4c, 5-(((4-bromobenzyl)oxy)methyl)-7-(pyrrolidin-1-ylmethyl)quinolin-8-ol], the IC50 with M14 was determined as 1000 ± 200 nM; in the test with A375, 900 ± 200 nM; in the test with PC-3, 700 ± 300 nM; in the test on M14/LCC6MDR1, 1800 ± 600 nM. For the same molecule, the “Caspase 3/7 activation relative to DMSO control group” value in the test on caspase 3/7 is “up to 4 folds”. Also, in the test with M14/LCC6MDR1, the “Resistance Index” value turned out to be 1.8. The “Activity in NCI-60 one-concentration screening” value (from here on “Activity”) in the test on NCI-60 cell lines is recorded as “good activity”.
`Oc1c(CN2CCCC2)cc(CSCc2ccccc2)c2cccnc12` [12a, 5-((benzylthio)methyl)-7-(pyrrolidin-1-ylmethyl)quinolin-8-ol]: the IC50 worked out at 1400 ± 200 nM in the test with M14, 1400 ± 300 nM in the test with A375, 1100 ± 100 nM with PC-3 and 2900 ± 600 nM in the test on M14/LCC6MDR1. Also, the “Caspase 3/7 activation relative to DMSO control group” value with caspase 3/7 is listed as “up to 4 folds”. Moreover, the “Resistance Index” value in the test with M14/LCC6MDR1 was determined as 2.1. In addition, in the test with NCI-60 cell lines, the “Activity” value was “good activity”.
The term GI50 denotes the concentration at which growth is held to half of that of the control. With `Oc1c(CN2CCCC2)cc(COCc2ccccc2)c2cccnc12` [UC-112, 5-((benzyloxy)methyl)-7-(pyrrolidin-1-ylmethyl)quinolin-8-ol, reference compound], the IC50 with M14 came out at 2100 ± 300 nM; with A375, 1900 ± 600 nM; with PC-3, 1600 ± 1000 nM; in the test with M14/LCC6MDR1, 3200 ± 500 nM. The “Resistance Index” value in the test with M14/LCC6MDR1 was found to be 1.5. The GI50 in the test with NCI-60 cell lines (Homo sapiens, five dose testing, 48 h, SRB, read-out: Average GI50 over all cancer cell lines in the NCI-60 panel) turned out to be 2200 nM. For the same molecule, the “Activity” value in the test on NCI-60 cell lines is reported as “good activity”.
As for `CCc1ccc(COCc2cc(CN3CCCC3)c(O)c3ncccc23)cc1` [4f, 5-(((4-ethylbenzyl)oxy)methyl)-7-(pyrrolidin-1-ylmethyl)quinolin-8-ol], the IC50 in the test on M14 came to 900 ± 100 nM; with A375, 900 ± 100 nM; with PC-3, 900 ± 100 nM; in the test with M14/LCC6MDR1, 2700 ± 1000 nM. Besides, the “Effect on survivin level, PC-3” value at survivin [1] is recorded as “dose-dependently suppressed survivin level”. Further, the “Effect on levels of other IAPs” value in test [2] is on record as “minimally affected”. The “Resistance Index” value in the test on M14/LCC6MDR1 is 3.0. Besides, at survivin [3] (estimated from western blotting, A375 and PC-3 cells), the “IC50 values for survivin inhibition” value is “low nanomolar range”. For the same molecule, the “Effect on survivin level, A375” value on survivin [3] (gradient increasing dose, 24 h, A375 cells) is given as “dose-dependently suppressed survivin level”.
